Data set [1] is described as follows: Particle size and zeta potential measurement (DLS) of ND-drug complexes. The data set is classed as physicochemical. As to conditions: for average particle size upon complexing with NDs: ND 1 mg/mL, therapeutic 0.1 mg/mL. As for the experimental part:
The particle size and zeta potential of the complexes were measured using a Zetasizer Nano (Malvern Instruments). […] ND:Purvalanol A complexes were prepared in a similar manner in 5% aqueous DMSO as described previously. […] All size measurements were performed at 25° C. at a 90° scattering angle. Mean hydrodynamic diameters were obtained via cumulative analysis of 11 measurements.

Data set [2] is described as follows: ND pulldown with UV-Vis spectrophotometric analysis of drug adsorption. Format: physicochemical. As to conditions: 14,000 rpm, 2 hours, 25° C. As for the experimental part: All samples underwent centrifugation at 14,000 rpm for 2 hours at 25° C., where the supernatant was then subsequently collected for spectroscopic scans from 200 nm to 600 nm. Drug loading concentrations were determined via ND-complex pull-down experiments which comprised of an initial absorbance reading, then a 2 hour centrifuge of all samples at 25° C. and 14000 RPM followed by a final absorbance reading. The concentration of loaded drug was then calculated by measuring the difference between the initial and final readings.

The nature of data set [3]: Dispersion in water / turbidity of drug with and without NDs. The data set is classed as physicochemical. The following applies: DMSO mixtures diluted 20 fold in water to 5% DMSO; 0.1 mg/ml Purvalanol A, 1 mg/ml ND.
Data set [4] relates to HepG2 tissue culture cells. As to the kind of experiment: DNA fragmentation (laddering) assay. As to conditions: 24 hours, 10:1 ND:Purvalanol A in 5% DMSO in water, 1:10 dilution. The data set is classed as cell-based. As for the experimental part:
A 1:10 dilution of 5% DMSO in water, NDs in 5% DMSO in water (1 mg/ml), ND:Purvalanol A in 5% DMSO in water (10:1 ratio—1 mg/ml ND, 0.1 mg/ml Purvalanol A), and Purvalanol A in 5% DMSO in water (0.1 mg/ml) were added to HepG2 tissue culture cells and grown for 24 hours. The cultured cells were lysed in 500 μL lysis buffer (10 mM Tris-HCl, pH 8.0, 10 mM EDTA, 1% Triton X-100). 30-minute incubations at 37° C. followed separate RNase A and proteinase K treatment. Following phenol chloroform extraction, nuclear DNA was isolated in isopropyl alcohol and stored at −80° C. overnight. The samples were then resuspended in DEPC water following a 70% ethanol wash and electrophoresed using a 0.8% agarose gel, and finally stained with ethidium bromide.

Data set [5] in a line: Nanodiamond-drug binding assays (UV-vis spectrophotometry, centrifugation). The data set is classed as physicochemical. As to conditions: UV-vis spectrophotometry and centrifugation (14000 rpm) pelleting. As for the experimental part: The binding efficiency of therapeutics such as daunorubicin, idarubicin, and others were analyzed using UV-vis spectrophotometry, as well as centrifugation assays (SEE FIGS. 18-39). In all cases, nanodiamond-drug interactions were capable of comprehensively pelleting the therapeutics (SEE FIGS. 19, 22, 25, 28, 30, 33, 36, and 39), indicating potent adsorption which was further confirmed via spectrophotometric analysis […], […], 1-32, 34-35, and 37-38).

Data set [6] is described as follows: Desorption of drug from Nanodiamond conjugates in water and PBS. The data set is classed as physicochemical.
The nature of data set [7]: Insulin desorption from NDs in NaOH of varying pH. As to conditions: 4:1 ratio; NaOH at pH 10.5. Format: physicochemical. As for the experimental part:
Determination of insulin adsorption to NDs was performed by protein detection assays before and after centrifugation. Insulin was added to a ND suspension, centrifuged at 14,000 rpm for 2 hours and the resultant solution extracted and quantified. Detection of desorbed insulin was performed by adding alkaline solutions of 1 mM NaOH, adjusted for varying pH, to samples of ND-insulin in suspension. Binding ratios were determined similar to the adsorption test.
The desorption assays were conducted in a similar manner as the adsorption assays. Aqueous solutions of FITC-labeled and standard insulin were added to ND suspensions at 5:1 and 4:1 ratios, respectively. Initial and centrifuged samples were measured, and the amount of insulin desorbed was calculated. […] Separate tests at pH 10.7 show the ND-insulin complex achieving 53.3±1.2% desorption.

Data set [8] can be described thus: 5-day insulin desorption test. As to conditions: for cumulative insulin released from NDs by day 1: of total adsorbed insulin, 4:1 ratio. The data set is classed as physicochemical. As for the experimental part: Additionally, a 5-day desorption test was conducted to determine cumulative insulin release. Samples were prepared by combining NDs and insulin (4:1 ratio), centrifuging at 14,000 rpm for 2 hours and extracting the remaining solution to remove any non-adsorbed insulin. Subsequently, a 1 mM NaOH solution adjusted to pH 10.5 was added to the samples, mixed thoroughly and centrifuged after a 24-hour period to determine protein concentration utilizing a BCA assay. In addition to alkaline-mediated release, water was added to a separate set of samples. The samples were replenished with NaOH or water after each measurement for the respective conditions, and the process was repeated every 24 hours over the course of 5 days.

Data set [9] can be described thus: DLS analysis of NDs, insulin and ND-insulin (size, PDI, zeta potential). Format: physicochemical. As to conditions: for Average Size (μm): DLS hydrodynamic cluster size. As for the experimental part: Hydrodynamic size and zeta potential of samples was measured with a Zetasizer Nano (Malvern Instruments, Worcestershire, United Kingdom). NDs and insulin were prepared as previously described. Briefly, the particles were suspended in buffer with corresponding pH at a concentration of 50 mg/mL. The size measurements were performed at 25° C. and at a 173° scattering angle. The mean hydrodynamic diameter was determined by cumulative analysis. The zeta potential determinations were based on electrophoretic mobility of the microparticles in the aqueous medium, which was performed using folded capillary cells in automatic mode.

Data set [10] has as its system RAW 264.7 macrophage cells. The data set can be described thus: MTT cell viability assay after serum starvation. Format: cell-based, murine. As to conditions: serum-starved 8 hours, 24-hour recovery, 0.1 μM versus 1 μM insulin. As for the experimental part: RAW 264.7 murine macrophages were plated in 96-well plates, serum-starved for 8 hours and then incubated for 24 hours. Post-starvation media was composed of the following conditions: DMEM, 0.1 μM insulin, 1 μM insulin, DMEM 10% FBS, approximately 0.1 μM insulin released from ND-insulin complex by NaOH at pH 10.5 (insulin present in media), resultant solution from centrifuged ND-insulin in water, ND-insulin treated with NaOH at pH 10.5 (1 μM total insulin, ND-insulin complex present in media) and ND-insulin (1 μM total insulin, ND-insulin complex present in media). Insulin released from NDs was prepared by centrifuging samples of NDs with adsorbed insulin in NaOH and extracting the resultant solution, which could be reconstituted with media to 0.1 μM insulin. In a similar fashion, water was utilized as a neutral solution for relevant desorption analysis. Methylthiazolyldiphenyl-tetrazolium bromide (MTT) solution (Sigma-Aldrich) was added corresponding to 10% of total volume, and then incubated for 3 hours. After formazan crystal formation, the media was removed and MTT solvent, 0.1N HCl in anhydrous isopropanol (Sigma-Aldrich), was added to samples to solubilize the MTT dye. Sample absorbance measurements occurred at 570 nm, accounting for background at a wavelength of 690 nm.

The next data set has as its system Insulin 1 (Ins1). The data set can be described thus: Quantitative RT-PCR gene expression, Ins1. The following applies: 3T3-L1 adipocytes; serum-starved 4 hours, 2-hour recovery; (2) 0.1 μM insulin. Format: cell-based, murine. As for the experimental part: (§1) RT-PCR procedures were conducted as described previously. 3T3-L1 adipocytes were plated in 6-well plates, serum-starved for 4 hours and then recovered in media solutions of DMEM, insulin, approximately 0.1 μM insulin released from ND-insulin by NaOH (pH 10.5), resultant solution from centrifuged ND-insulin in pH-neutral water, ND-insulin treated with NaOH (1 μM total insulin) and NDs with bound insulin (ND-insulin, 1 μM total insulin). Preparations of media solutions containing DMEM, insulin, NDs and NaOH were conducted in a similar fashion to those implemented for the MTT assay. RNA isolation was completed by lysing cells with TRIzol reagent (Invitrogen Corporation, Carlsbad, Calif.) and added to chloroform to obtain genetic material by centrifugation. cDNA synthesis was performed using the iScript Select cDNA Synthesis Kit (Bio-Rad, Hercules, Calif.). PCR expression of the Ins1 and Csf3/G-csf genes (Integrated DNA Technologies, Coralville, Iowa) were quantified by the MyiQ Single Color Real-Time PCR machine (Bio-Rad, Hercules, Calif.) using SYBER Green detection reagents (Quanta Biosciences, Gaithersburg, Md.). The Rpl32 gene (Integrated DNA Technologies) served as the housekeeping gene for normalization of cDNA among samples.

Data set [11] deals with Granulocyte colony-stimulating factor (Csf3/G-csf). The data set can be described thus: Quantitative RT-PCR gene expression, Csf3/G-csf. Format: cell-based, murine. The following applies: 3T3-L1 adipocytes; (2) 0.1 μM insulin. As for the experimental part: as §1
For data set [12] the following is noted: reference [38]; cited from earlier work.

Data on six molecules can be found in US10799593B2, “Nanodiamond particle complexes” (priority 2008, dated 2020).

For the molecule 4-hydroxytamoxifen [4-OHT], in [1], the “average particle size upon complexing with NDs” value is given as 278.9 nm. In addition, in [1] (in 5% DMSO, not complexed), the “mean diameter (particle size)” value worked out at 485.1 nm. In [2], the “UV-Vis absorbance of supernatant before and after centrifugation (pulldown)” value is “insignificant change in the UV-Vis absorbance”.

Turning to `CC(C)[C@H](CO)Nc1nc(Nc2cccc(Cl)c2)c2ncn(C(C)C)c2n1` [Purvalanol A], in [1], the “average particle size upon complexing with NDs” value is 556 nm. For the same molecule, the “turbidity after dilution in water” value in data set [3] is “precipitated out of solution, producing a turbid liquid”. Moreover, the DNA fragmentation result in data set [4] is “Fragmentation was evident”.

Consider `CC(=O)[C@]1(O)Cc2c(O)c3c(c(O)c2[C@@H](O[C@H]2C[C@H](N)[C@H](O)[C@H](C)O2)C1)C(=O)c1ccccc1C3=O` [IDA, idarubicin], for which the “binding / adsorption between ND surface and therapeutic” value in data set [5] was “exceptional binding”. For the same molecule, the “release profile of drug desorbed from Nanodiamond conjugates” value (from here on “release profile of drug desorbed”) in [6] is recorded as “drug elution is sustained over several hours”.

Regarding `COc1cccc2c1C(=O)c1c(O)c3c(c(O)c1C2=O)C[C@@](O)(C(C)=O)C[C@@H]3O[C@H]1C[C@H](N)[C@H](O)[C@H](C)O1` [DAUN, daunorubicin], the “binding / adsorption between ND surface and therapeutic” value in data set [5] is on record as “exceptional binding”. In addition, the “release profile of drug desorbed” value in data set [6] is given as “drug elution is sustained over several hours”.

`COc1cccc2c1C(=O)c1c(O)c3c(c(O)c1C2=O)C[C@@](O)(C(=O)CO)C[C@@H]3O[C@H]1C[C@H](N)[C@@H](O)[C@H](C)O1` [EPI, epirubicin]: in [5], the “binding / adsorption between ND surface and therapeutic” value is given as “exceptional binding”. Besides, the “release profile of drug desorbed” value in [6] is reported as “drug elution is sustained over several hours”.

With insulin: bovine insulin (Sigma-Aldrich), the “desorption (release) of standard insulin from NDs” value in data set [7] is reported as 31.3±1.6%. Also, the “amount of insulin released with NaOH relative to water” value in data set [8] (5 days) is recorded as “more than 20 times”. Besides, in data set [8] (NaOH (pH 10.5)), the “total insulin eluted from NDs by day 5” value turned out to be 45.8±3.8 wt % and the “cumulative insulin released from NDs by day 1” value was 32.7±1.9 wt %. In [8] (water), the “total insulin eluted from NDs by day 5” value was 2.2±1.2 wt % and the “cumulative insulin released from NDs by day 1” value stood at 0.2±0.1 wt %. The “zeta potential at pH 10.5 compared with pH 7” value in data set [9] is recorded as “substantially more negative”. Also, the zeta potential entry in [9] (at both pH 7 and 10.5) was “negative values”. Moreover, in [9] (pH 7), the PDI is on record as 0.97 ± 0.046 and the “Average Size (μm)” value is listed as 1.59 ± 0.038 μm. Moreover, in data set [9] (pH 10.5), the PDI is reported as 0.99 ± 0.011 and the “Average Size (μm)” value turned out to be 2.28 ± 0.66 μm. In addition, the relative viability entry in data set [10] is “increased viability at higher insulin concentrations”. The “relative expression of Ins1” value with Insulin 1 (Ins1) is “lowest expression of Ins1”. Also, in [11], the “relative expression of Csf3/G-csf” value was “comparably higher than that of Ins1”. Besides, the isoelectric point result in [12] is recorded as “approximately 5.6”.
